# Patent publication EP2620142A1, “Hedgehog signaling pathway involved in energy metabolism” (Max-Planck-Gesellschaft zur Förderung der Wissenschaften …, priority 2012, dated 2013)
# Legend:
# [1] = tested on: 3T3-L1 adipocytes; assay: Calcium flux measurement (FluoForte); format: cell-based, Murine
# Method: 3T3-L1 cells were cultured and differentiated in black wall/clear bottom 96-well plates (Corning). At day seven post-induction, cells were starved overnight in DMEM containing 1 % BSA and loaded with the calcium dye FluoForte AM (Enzo Lifescience) according to the instructions provided by the manufacturer. Intracellular calcium levels were measured using a Synergy 4 microplate reader (BioTeK). […] Baselines for each well were acquired before injection and subtracted afterwards. Ionomycin and EGTA were injected in concentrations of 1 µM.
# [2] = tested on: 3T3-L1 adipocytes; format: cell-based, Murine
# Method: Murine 3T3-L1 preadipocytes (ATCC) were maintained in DMEM containing 10% heat inactivated calf serum (CS) at 37°C and 5% CO2. Two days post-confluence, adipocyte differentiation was induced by treating cells with 0.25 mM 3-Isobutyl-1-methylxanthine (IBMX), 1 µM dexamethasone, 1.74 µM insulin and 5 µM Troglitazone in DMEM containing 10% fetal bovine serum (FBS). After 48 hours, the medium was replaced with DMEM supplemented with 10% FBS, insulin and Troglitazone alone. After an additional 48 hours, cells were switched to DMEM with 10% FBS for the rest of the differentiation process and the medium was changed every other day. Seven days post-induction, differentiated 3T3-L1 1 adipocytes were starved overnight in DMEM containing 1 % Bovine Serum Albumin (BSA) before starting different treatments as indicated in the text.
# Differentiated 3T3-L1 adipocytes were starved overnight in DMEM containing 1 % BSA and treated as indicated. NAD^+, NADP^+, NADH, and NADPH were determined using the Enzychrom NAD^+/NADH and the Enzychrom NADP^+/NADPH assay kit, respectively (BioAssay Systems) according to manufacturer's instructions. To measure glucose consumption and lactate production, the Glucose RTU and Lactate RTU kits (Biomerieux) were used according to manufacturer's instruction and normalized to cell number. AMP, ADP and ATP were determined as previously described^51. In brief, cells were washed once with ice cold PBS and proteins were precipitated with 1 % trichloroacetic acid (TCA). Repeated ether washes were used to remove TCA from the aqueous extract phase. Extracts were dried and stored at -80°C until further processing. To determine nucleotide phosphates by reversed-phase HPLC cell extracts were lyophilized for 3 days at -20 °C. Dried samples were dissolved in mobile phase A (60 mM K2HP04 and 40 mM KH2P04, adjusted to pH 7 with 0.1 M KOH). 20 µL were injected into an Agilent 1200 HPLC system (Agilent) and nucleotides were separated by gradient elution from an Agilent Eclipse XDB-C18 4.6 x 150 mm column at a flow rate of 1 mL/min. The gradient was 99% phase A from 0-5 minutes, 99% phase A to 40% A from 5-20 minutes and 99% phase A from 20-32.5 minutes. 100% acetonitrile served as mobile phase B. Eluting nucleotides were monitored on a UV detector at 254 nm. ATP, ADP and AMP standards were used to generate calibration curves for peak quantifications.
# [3] = tested on: AMPK; assay: AMPKAR FRET assay of AMPK activity; format: cell-based, Human; details: cyclopamine, HEK293 with AMPK-AR reporter
# Method: HEK293 cells (ATCC) were grown in DMEM containing 10% FBS. 2 x 10^6 cells were seeded in 10 cm dishes and transfected using the GeneJuice Reagent (Merck) according to manufacturer's instructions. 48 hours after transfection, cells were resuspended in PBS and used for FRET assays.
# HEK293 cells transfected with the AMPK-AR construct^40 were resuspended in PBS at a concentration of 10^5 cells/ml. A Synergy 4 microplate reader (BioTeK) was used for measuring FRET signals. In brief, compounds were pipetted into a 96-well plate at the concentrations indicated in the text. Cell suspensions were pre-loaded in the reader to be injected at 10^4 cells/well. The FRET signal was detected using 420/50 nm and 528/20 nm as excitation and emission settings. Baseline values for each well were acquired before injection and subtracted afterwards.
# [4] = tested on: C57BL/6J mice; assay: Oral glucose tolerance test (OGTT); format: in vivo
# Method: (§1) C57BL/6J mice were maintained on a standard rodent chow diet and a 12 hour light: 12 hour dark cycle. Eight week old, over-night fasted C57BL/6J male mice were injected intraperitoneally (i.p.) with vehicle (45% hydroxypropyl-β-cyclodextrin; HBS) or cyclopamine (10 mg/kg). Fifteen minutes after injection, an oral glucose tolerance test (OGTT) was performed by administering 2 g/kg glucose by oral gavage. Tail-vein blood was collected to measure glucose and insulin levels. Insulin was measured using the ultrasensitive insulin ELISA Kit from Mercodia, according to the manufacturer's recommendations. For cyclopamine tolerance tests eight week old C57BL/6J mice were i.p. injected with streptozotocin (STZ, 200 mg/kg body weight) to destroy pancreatic beta-cells. 72 hours later STZ-treated mice were separated into two groups and injected i.p. with either vehicle or 10 mg/kg cyclopamine. All animal experiments were carried out according to an ethical animal license protocol in accordance to the animal protection law and approved by the Regierungspräsidium Freiburg (Tierversuchsvorhaben Registrier-Nr.: G-10/94).
# [5] = tested on: C57BL/6J mice; assay: Glycemic-insulinemic clamp with somatostatin infusion; format: in vivo
# Method: Indwelling catheters were placed into the left femoral vein and externalised in the interscapular region of 11 week old C57BL/6J mice^17,52. The animals were allowed to recover for 5 days and fasted for 16 hours before the experiment. Somatostatin (SST14 Bachem, Switzerland) was infused at a rate of 1 µg/kg/min and hyperglycemia (12.5 mM) was maintained by variable infusion of 10% glucose. Steady state was maintained for 90 min before cyclopamine injection (2/3 bolus 1/3 infusion; low dose = 1 mg/kg, high-dose = 10 mg/kg), or HBS (Control). Whole blood was sampled from the tail every 10 min during the last hour using a glucometer (AccuCheck Aviva; Roche Diagnostics, Meylan, France).
# [6] = tested on: STZ-treated C57BL/6J mice; assay: Cyclopamine tolerance test in STZ-treated mice; format: in vivo
# Method: as §1
# [7] = tested on: Smoothened; details: cyclopamine 100 nM against standard 200 nM SAG; cited from earlier work
smiles,measurement,setting,value
O=C(O)CN(CCOCCOCCN(CC(=O)O)CC(=O)O)CC(=O)O [EGTA],effect on cyclopamine-induced Ca++ response,[1]; EGTA 1 µM,sensitive to extracellular EGTA
same,effect on SAG- and Shh-induced Ca++ responses,"[1]; EGTA 1 µM, extracellular calcium chelator",completely abrogated the SAG-and Shh-induced responses
c1cc(-c2cnn3cc(-c4ccc(OCCN5CCCCC5)cc4)cnc23)ccn1 [compound C],"effect on SAG-induced metabolic rewiring (glucose uptake, lactate production, redox balance)","[2]; SAG 200 nM, compound C 10 µM, nifedipine 20 µM, Ptx 100 ng/ml",abrogated all detectable metabolic rewiring effects following SAG stimulation
same,"effect on cyclopamine-dependent glucose uptake, lactate production and redox rebalancing","[2]; cyclopamine 100 nM, compound C 10 µM, nifedipine 20 µM, Ptx 100 ng/ml",efficiently counteracted
"CC1=C2C[C@H]3[C@@H](CC=C4C[C@@H](O)CC[C@@]43C)[C@@H]2CC[C@]12O[C@@H]1C[C@H](C)CN[C@H]1[C@H]2C [cyclopamine, 11-deoxojervine]",NAD+/NADH ratio,[2]; cyclopamine 100 nM,augmentation of the NAD^+/NADH ratio
same,generation of lactate,[2]; cyclopamine 100 nM,generation of lactate
same,glucose uptake,[2]; cyclopamine 100 nM,marked glucose uptake
same,Ampk sensitive FRET signal,[3],significant Ampk sensitive FRET signal
same,Ca++ response,[1]; cyclopamine,rapid and robust Ca^++ response
same,glucose tolerance,"[4]; 10 mg/kg i.p. 15 minutes prior to testing, 2 g/kg oral glucose",moderate but significant improvement in glucose tolerance
same,basal and glucose-stimulated insulin secretion,[4]; 10 mg/kg i.p. pre-treatment,Neither basal nor glucose-stimulated insulin secretion appeared affected
same,tissue-specific glucose uptake (glucose tracing),"[5]; LD 1 mg/kg, HD 10 mg/kg, EDL, Soleus, VL",increased glucose-uptake into muscle
same,time to increase in glucose infusion rate,[5]; after cyclopamine infusion,10 to 20 min
same,glucose infusion rate,"[5]; low dose 1 mg/kg, high dose 10 mg/kg, somatostatin infusion",robust dose-dependent increases in glucose infusion rate
same,glucose clearance,"[6]; 10 mg/kg i.p., insulin-deficient mice",significant and robust glucose clearance
same,time to glucose clearance,"[6]; after cyclopamine injection, 10 mg/kg",~30 min
same,displacing SAG and blocking canonical signalling,[7],incapable of displacing standard 200 nM SAG and blocking canonical signalling
